*1 amine or outer side, *2 acyl side, *3 side chain or, on linkers, in order; H or OH if unused. Where a SMILES comes first, the peptide text is derived from it. Side-chain parts run from the residue outwards. [ ]: non-standard residue; d: D form. The star is where a group is joined. Ala(piperidin-4-yl) = O=C([C@H](CC1CCN([*:3])CC1)N[*:1])[*:2]; X2 = O=C([C@@H]1C[C@@H](Oc2ccncc2)CN1[*:1])[*:2]; Ala(piperazin-1-yl) = N[C@@H](CN1CCNCC1)C(=O)O; Ethylenediamine = C(CN[*:2])N[*:1]; d(hPhe) = N[C@H](CCc1ccccc1)C(=O)O; Hyp = O=C(O)[C@@H]1C[C@@H](O)CN1; hPhe = N[C@@H](CCc1ccccc1)C(=O)O; 3Pal = N[C@@H](Cc1cccnc1)C(=O)O; Cyclohexylmethyl = C1CCC(C*)CC1; Tic = O=C(O)[C@@H]1Cc2ccccc2CN1; Phg = N[C@H](C(=O)O)c1ccccc1; CO = O=C([*:1])[*:2]; Bn = c1ccc(C*)cc1 Where only a bound is given, the exact number is not on record here.

The results in this text go back to patent US11987648B2, “Cyclohexapeptides as selective somatostatin SST5 receptor agonists” (Heptares Therapeutics Limited, priority 2018, dated 2024).

One assay has as its target SST5 (Homo sapiens, UniProt P35346). Put plainly: Hit Hunter cAMP XS+ assay, SST5 activation via Gi (reduction of forskolin-stimulated cAMP). It is filed as cell-based. Particulars: for Emax: read-out: SST5 (EMax); for EC50: reduction of forskolin-stimulated cAMP, 4-parameter logistic fit, read-out: SST5 pEC50 (converted); for SST5/2 Selectivity: selectivity for SST5 over SST2. The procedure:
(§1) A Hit Hunter® cAMP XS+ assay was used to monitor activation of the SST2 and SST5 via the Gi G protein. Cells were pre-stimulated with forskolin to elicit a cAMP response and the potency and efficacy of somatostatin agonists to reduce cAMP was measured. Briefly cells (10,000 cells/well) were incubated (37° C.; 30 min) with compound ([…]) in media (2:1 HBSS/11 mM Hepes: cAMP XS+Ab reagent) in the presence of EC80 forskolin ([…] and 15 μM SST5). Signal was detected through incubation with 20 μL cAMP XS+ED/CL lysis cocktail ([…]; RT) followed by incubation with […] cAMP XS+EA reagent (180 min; RT). Microplates were read with a PerkinElmer Envision™ instrument for chemiluminescent signal detection.

For a further assay, the target named is SST2 (Homo sapiens, UniProt P30874). The assay can be described thus: Hit Hunter cAMP XS+ assay, SST2 activation via Gi (reduction of forskolin-stimulated cAMP). The class given is cell-based. Conditions: for Emax: read-out: SST2 (EMax); for EC50: reduction of forskolin-stimulated cAMP, 4-parameter logistic fit, read-out: SST2 pEC50 (converted). The procedure: as §1
Sequence of SST2 (P30874 whole entry): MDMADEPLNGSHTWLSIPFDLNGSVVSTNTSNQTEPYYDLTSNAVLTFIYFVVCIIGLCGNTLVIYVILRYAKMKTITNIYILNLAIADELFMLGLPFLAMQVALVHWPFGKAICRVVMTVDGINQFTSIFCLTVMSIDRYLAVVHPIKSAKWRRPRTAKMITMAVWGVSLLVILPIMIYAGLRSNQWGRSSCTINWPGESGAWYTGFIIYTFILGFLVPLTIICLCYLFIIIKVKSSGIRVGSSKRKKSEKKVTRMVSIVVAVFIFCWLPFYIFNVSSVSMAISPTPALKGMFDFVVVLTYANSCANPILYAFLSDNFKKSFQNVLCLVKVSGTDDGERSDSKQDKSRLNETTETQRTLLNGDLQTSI

Sequence of SST5 (P35346 whole entry): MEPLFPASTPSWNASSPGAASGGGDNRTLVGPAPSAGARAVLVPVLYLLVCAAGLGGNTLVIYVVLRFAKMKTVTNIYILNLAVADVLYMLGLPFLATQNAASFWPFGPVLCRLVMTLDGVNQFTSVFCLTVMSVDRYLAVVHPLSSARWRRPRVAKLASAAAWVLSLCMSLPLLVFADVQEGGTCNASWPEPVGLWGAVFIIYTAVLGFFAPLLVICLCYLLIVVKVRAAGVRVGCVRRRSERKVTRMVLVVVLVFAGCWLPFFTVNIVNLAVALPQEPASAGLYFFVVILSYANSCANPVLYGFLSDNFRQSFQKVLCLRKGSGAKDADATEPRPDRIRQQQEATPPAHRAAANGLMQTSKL

For orientation: Emax means the greatest response seen or fitted, relative to the assay's reference. In the case of `NCCNC(=O)O[C@@H]1C[C@H]2C(=O)N[C@H](CCc3ccccc3)C(=O)N[C@H](Cc3c[nH]c4ccccc34)C(=O)N[C@@H](CN3CCNCC3)C(=O)N[C@@H](Cc3ccc(OCc4ccccc4)cc3)C(=O)N[C@@H](Cc3cccnc3)C(=O)N2C1` [Example 16] (cyclo([3Pal][Hyp]([CO-Ethylenediamine])[d(hPhe)][dW][Ala(piperazin-1-yl)]Y(Bn))), on SST5, the maximum response (Emax) is 100%, the EC50 is 3.98 nM and the “SST5/2 Selectivity” value is given as 2729.5. Moreover, on SST2, the Emax stood at 79.5% and the EC50 was more than 10000 nM.

As for `NCCNC(=O)O[C@@H]1C[C@H]2C(=O)N[C@@H](CCc3ccccc3)C(=O)N[C@H](Cc3c[nH]c4ccccc34)C(=O)N[C@@H](CC3CCNCC3)C(=O)N[C@@H](Cc3ccc(OCc4ccccc4)cc3)C(=O)N3Cc4ccccc4C[C@H]3C(=O)N2C1` [Example 17] (cyclo([Hyp]([CO-Ethylenediamine])[hPhe][dW][Ala(piperidin-4-yl)]Y(Bn)[Tic])), on SST5, the Emax amounted to 104%, the EC50 is 0.501 nM and the “SST5/2 Selectivity” value came to 789.4. On SST2, the Emax stood at 97.3% and the EC50 is 398 nM.

`NCCNC(=O)O[C@@H]1C[C@H]2C(=O)N[C@@H](CCc3ccccc3)C(=O)N[C@@H](Cc3c[nH]c4ccccc34)C(=O)N[C@@H](CC3CCNCC3)C(=O)N[C@@H](Cc3ccc(OCc4ccccc4)cc3)C(=O)N3Cc4ccccc4C[C@H]3C(=O)N2C1` [Example 19] (cyclo([Hyp]([CO-Ethylenediamine])[hPhe]W[Ala(piperidin-4-yl)]Y(Bn)[Tic])): at SST5, the maximal response (Emax) amounted to 99.8%, the EC50 is 20 nM and the “SST5/2 Selectivity” value is given as 5.5. In addition, on SST2, the Emax was determined as 75.5% and the EC50 is 100 nM.

For the molecule `O=C1N[C@@H](Cc2cccnc2)C(=O)N2C[C@H](Oc3ccncc3)C[C@H]2C(=O)N[C@H](CCc2ccccc2)C(=O)N[C@H](Cc2c[nH]c3ccccc23)C(=O)N[C@@H](CC2CCNCC2)C(=O)N[C@H]1Cc1ccc(OCc2ccccc2)cc1` [Example 20] (cyclo([3Pal][X2][d(hPhe)][dW][Ala(piperidin-4-yl)]Y(Bn))), at SST5, the maximal effect (Emax) was determined as 99.6%, the EC50 is 6.31 nM and the “SST5/2 Selectivity” value was determined as 418.4. Moreover, on SST2, the Emax was determined as 98% and the EC50 was 3160 nM.

As for `O=C1N[C@@H](Cc2cccnc2)C(=O)N2C[C@H](Oc3ccncc3)C[C@H]2C(=O)N[C@@H](CCc2ccccc2)C(=O)N[C@H](Cc2c[nH]c3ccccc23)C(=O)N[C@@H](CC2CCNCC2)C(=O)N[C@H]1Cc1ccc(OCc2ccccc2)cc1` [Example 22] (cyclo([3Pal][X2][hPhe][dW][Ala(piperidin-4-yl)]Y(Bn))), at SST5, the Emax was 102%, the EC50 was 0.501 nM and the “SST5/2 Selectivity” value was determined as 142.6. Moreover, at SST2, the Emax turned out to be 100% and the EC50 was 79.4 nM.

Turning to `O=C1N[C@@H](Cc2ccc(OCc3ccccc3)cc2)C(=O)N[C@@H](Cc2cccnc2)C(=O)N2C[C@H](Oc3ccncc3)C[C@H]2C(=O)N[C@@H](CCc2ccccc2)C(=O)N[C@@H](Cc2c[nH]c3ccccc23)C(=O)N[C@H]1CC1CCNCC1` [Example 23] (cyclo([3Pal][X2][hPhe]W[Ala(piperidin-4-yl)]Y(Bn))), at SST5, the Emax amounted to 101%, the EC50 was 3.98 nM and the “SST5/2 Selectivity” value is 148.7. Besides, at SST2, the Emax came to 96.6% and the EC50 was 631 nM.

Consider `O=C1N[C@@H](Cc2ccc(OCc3ccccc3)cc2)C(=O)N[C@@H](Cc2cccnc2)C(=O)N2C[C@H](Oc3ccncc3)C[C@H]2C(=O)N[C@H](CCc2ccccc2)C(=O)N[C@@H](Cc2c[nH]c3ccccc23)C(=O)N[C@H]1CC1CCNCC1` [Example 24] (cyclo([3Pal][X2][d(hPhe)]W[Ala(piperidin-4-yl)]Y(Bn))), for which, at SST5, the Emax was 102%, the EC50 was 100 nM and the “SST5/2 Selectivity” value was determined as 110.6. On SST2, the Emax stood at 46.8% and the EC50 is more than 10000 nM.

Regarding `NCCNC(=O)O[C@@H]1C[C@H]2C(=O)N[C@H](CCc3ccccc3)C(=O)N[C@H](Cc3c[nH]c4ccccc34)C(=O)N[C@@H](CN3CCNCC3)C(=O)N[C@@H](Cc3ccc(OCc4ccccc4)cc3)C(=O)N3Cc4ccccc4C[C@H]3C(=O)N2C1` [Example 25] (cyclo([Hyp]([CO-Ethylenediamine])[d(hPhe)][dW][Ala(piperazin-1-yl)]Y(Bn)[Tic])), on SST5, the Emax was 102%, the EC50 is 0.126 nM and the “SST5/2 Selectivity” value turned out to be 1351.8. Further, on SST2, the Emax is 100% and the EC50 is 200 nM.

Regarding `NCCNC(=O)O[C@@H]1C[C@H]2C(=O)N[C@@H](CCc3ccccc3)C(=O)N[C@H](Cc3c[nH]c4ccccc34)C(=O)N[C@@H](CN3CCNCC3)C(=O)N[C@@H](Cc3ccc(OCc4ccccc4)cc3)C(=O)N3Cc4ccccc4C[C@H]3C(=O)N2C1` [Example 26] (cyclo([Hyp]([CO-Ethylenediamine])[hPhe][dW][Ala(piperazin-1-yl)]Y(Bn)[Tic])), at SST5, the maximum response (Emax) is 99.1%, the EC50 is 0.126 nM and the “SST5/2 Selectivity” value is on record as 4067.3. Moreover, on SST2, the maximum response (Emax) amounted to 66.6% and the EC50 is 501 nM.

In the case of `NCCNC(=O)O[C@@H]1C[C@H]2C(=O)N[C@@H](c3ccccc3)C(=O)N[C@H](Cc3c[nH]c4ccccc34)C(=O)N[C@@H](CN3CCNCC3)C(=O)N[C@@H](Cc3ccc(OCC4CCCCC4)cc3)C(=O)N[C@@H](Cc3ccccc3)C(=O)N2C1` [Example 27] (cyclo(F[Hyp]([CO-Ethylenediamine])[Phg][dW][Ala(piperazin-1-yl)]Y(Cyclohexylmethyl))), at SST5, the Emax was 99.4%, the EC50 is 2.51 nM and the “SST5/2 Selectivity” value turned out to be 159.6. At SST2, the Emax turned out to be 90.7% and the EC50 is 398 nM.

In the case of `NCCNC(=O)O[C@@H]1C[C@H]2C(=O)N[C@@H](CCc3ccccc3)C(=O)N[C@H](Cc3c[nH]c4ccccc34)C(=O)N[C@@H](CC3CCNCC3)C(=O)N[C@@H](Cc3ccc(OCc4ccccc4)cc3)C(=O)N[C@@H](Cc3ccccc3)C(=O)N2C1` [Example 28] (cyclo(F[Hyp]([CO-Ethylenediamine])[hPhe][dW][Ala(piperidin-4-yl)]Y(Bn))), on SST5, the maximum response (Emax) stood at 100%, the EC50 was 0.0794 nM and the “SST5/2 Selectivity” value turned out to be 101.0. Moreover, on SST2, the Emax turned out to be 99.6% and the EC50 is 7.94 nM.

`NCCNC(=O)O[C@@H]1C[C@H]2C(=O)N[C@@H](CCc3ccccc3)C(=O)N[C@@H](Cc3c[nH]c4ccccc34)C(=O)N[C@@H](CC3CCNCC3)C(=O)N[C@@H](Cc3ccc(OCc4ccccc4)cc3)C(=O)N[C@@H](Cc3ccccc3)C(=O)N2C1` [Example 29] (cyclo(F[Hyp]([CO-Ethylenediamine])[hPhe]W[Ala(piperidin-4-yl)]Y(Bn))): at SST5, the maximal response (Emax) came to 100%, the EC50 was 1 nM and the “SST5/2 Selectivity” value came out at 663.6. Besides, on SST2, the maximal response (Emax) was found to be 89.6% and the EC50 was 794 nM.
